Data: paper PMC6270864, “Identification of Two Novel α1-AR Agonists Using a High-Throughput Screening Model” (Molecules, 2014)

Experiments:
[1] = molecular target: T1, human α1A-adrenoceptor (ADRA1A) expressed in HEK293 cells (Homo sapiens, UniProt P35348); assay: Dual-luciferase CRE reporter HTS assay, inhibition of PE-induced CRE activation (RIP); format: cell-based; conditions: relative inhibitory potency = (RLU PE alone − RLU PE+antagonist)/RLU PE alone
T1 construct: eGFP; host or cells: HEK293 (transient, Lipofectamine 2000)
T1 sequence (P35348 1-466): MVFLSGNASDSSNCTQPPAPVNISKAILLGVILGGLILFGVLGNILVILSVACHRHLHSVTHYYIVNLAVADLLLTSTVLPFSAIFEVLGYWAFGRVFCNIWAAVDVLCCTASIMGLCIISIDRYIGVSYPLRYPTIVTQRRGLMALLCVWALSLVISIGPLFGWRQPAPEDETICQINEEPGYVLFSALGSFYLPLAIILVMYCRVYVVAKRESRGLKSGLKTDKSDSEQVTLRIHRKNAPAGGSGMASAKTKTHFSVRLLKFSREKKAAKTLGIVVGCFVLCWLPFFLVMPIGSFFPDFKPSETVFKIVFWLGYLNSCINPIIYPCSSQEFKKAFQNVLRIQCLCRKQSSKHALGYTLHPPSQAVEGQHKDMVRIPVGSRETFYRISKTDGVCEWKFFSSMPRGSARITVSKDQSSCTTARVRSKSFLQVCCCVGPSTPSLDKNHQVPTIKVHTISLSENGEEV
Protocol: (§1) Furthermore, the relative inhibitory potency (RIP) could be used to improve the readability of the results. Which was determined relative to that of PE-induced group ([…]), and calculated using the following formula [15]: RIP = (RLUPE alone − RLUPE+antagonist)/RLUPE alone(1)
(§2) HEK293 cells were plated at a density of 10^5 […] in 96-well plates in 100 μL of DMEM basic medium containing 10% fetal bovine serum, 100 U/mL penicillin, and 0.1 mg/mL streptomycin. After overnight incubation, human ADRA1-expression vectors, namely, ADRA1A, ADRA1B, and ADRA1D, were co-transfected with reporter vectors (CRE, SRE, AP1, NFAT, and NF-кB) and pGL4.74 [hRluc/TK] (included as a control for transfection efficiency) using Lipofectamine 2000 transfection reagent (Invitrogen Life Technologies, Carlsbad, CA, USA). The medium was removed after 4 h and replaced with high-glucose DMEM for 18 h. Cells were then treated with agonists (at concentrations of 0.01–20 μM) and incubated for 8 h.
(§3) Firefly and Renilla luciferase activities, which are indicated as RLUs, were determined using Dual-Glo luciferase assay kits (Promega) according to the manufacturer’s instructions. RLUs were measured using a luminometer (GloMaxTM 96-Microplate Luminometer, Promega) and are reported as the mean ± SEM of three individual experiments. For agonists, fold of induction = RLUinduced/RLUuninduced. For antagonists, % of control = 100 × RLU (agonist + antagonist)/RLU(agonist alone). All RLUs were normalized against firefly RLUs/Renilla RLUs. […] The pKB of the antagonist was calculated by plotting log (dose ratio–1) against the antagonist dose (μM) and subjecting the data to Schild regression, where the intercept of the x-axis represents the pKB.

[2] = molecular target: T2, human α1B-adrenoceptor (ADRA1B) expressed in HEK293 cells (Homo sapiens, UniProt P35368); assay: as above; format: cell-based; conditions: relative inhibitory potency = (RLU PE alone − RLU PE+antagonist)/RLU PE alone
T2 construct: eGFP; host or cells: HEK293 (transient, Lipofectamine 2000)
T2 sequence (P35368 1-520): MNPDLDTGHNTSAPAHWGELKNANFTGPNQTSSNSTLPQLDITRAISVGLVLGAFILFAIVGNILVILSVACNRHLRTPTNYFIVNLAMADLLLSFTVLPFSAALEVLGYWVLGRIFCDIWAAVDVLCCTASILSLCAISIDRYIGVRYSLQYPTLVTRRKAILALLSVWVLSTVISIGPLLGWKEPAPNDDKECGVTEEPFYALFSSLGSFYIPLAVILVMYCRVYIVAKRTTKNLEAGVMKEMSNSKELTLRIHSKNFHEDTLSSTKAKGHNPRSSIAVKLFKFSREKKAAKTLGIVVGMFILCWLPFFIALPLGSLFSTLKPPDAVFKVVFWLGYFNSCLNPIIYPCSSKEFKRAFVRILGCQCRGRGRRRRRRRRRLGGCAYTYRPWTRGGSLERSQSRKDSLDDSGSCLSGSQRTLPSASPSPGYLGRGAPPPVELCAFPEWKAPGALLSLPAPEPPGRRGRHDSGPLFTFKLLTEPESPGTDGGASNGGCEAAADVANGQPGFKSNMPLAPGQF
Protocol: as §1, §2, §3

[3] = molecular target: T3, human α1D-adrenoceptor (ADRA1D) expressed in HEK293 cells (Homo sapiens, UniProt P25100); assay: as above; format: cell-based; conditions: relative inhibitory potency = (RLU PE alone − RLU PE+antagonist)/RLU PE alone
T3 construct: eGFP; host or cells: HEK293 (transient, Lipofectamine 2000)
T3 sequence (P25100 1-572): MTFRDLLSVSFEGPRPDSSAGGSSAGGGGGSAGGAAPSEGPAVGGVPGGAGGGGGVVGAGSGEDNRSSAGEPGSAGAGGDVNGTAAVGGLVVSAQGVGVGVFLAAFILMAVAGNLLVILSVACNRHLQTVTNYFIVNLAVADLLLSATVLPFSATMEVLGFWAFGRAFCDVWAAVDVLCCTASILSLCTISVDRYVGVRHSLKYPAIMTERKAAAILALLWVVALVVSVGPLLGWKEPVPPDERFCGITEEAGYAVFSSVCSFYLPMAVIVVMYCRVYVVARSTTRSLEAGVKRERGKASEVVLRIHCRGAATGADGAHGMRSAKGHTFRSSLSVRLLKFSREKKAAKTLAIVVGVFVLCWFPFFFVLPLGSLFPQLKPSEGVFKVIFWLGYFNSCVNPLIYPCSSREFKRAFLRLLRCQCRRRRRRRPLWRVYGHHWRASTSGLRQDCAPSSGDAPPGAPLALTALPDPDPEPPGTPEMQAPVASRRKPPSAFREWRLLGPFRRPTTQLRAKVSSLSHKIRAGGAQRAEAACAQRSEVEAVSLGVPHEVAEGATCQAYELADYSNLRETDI
Protocol: as §1, §2, §3

[4] = system: DU145 human prostate cancer cell line; assay: CCK-8 assay, cytotoxic / anti-proliferative activity; format: cell-based; conditions: DU-145, CCK-8, 24 h exposure, mean ± SD, three experiments
Protocol: (§4) Cell proliferation was measured with the Cell Counting Kit-8 (CCK-8) assay kit (Dojindo Corp., Kumamoto, Japan). Cells were harvested during logarithmic growth phase and seeded in 96-well plates at a density of 1 × 10^5 cells/mL, and cultured at 37 °C in a humidified incubator (5% CO2) for 24 h, followed by exposure to various concentrations of compounds tested for 24 h. Subsequently 10 μL of CCK-8 (Dojindo) was added to each well, the cells were then incubated for an additional 1 h at 37 °C to convert WST-8 into formazan. Cell growth inhibition was determined by measuring the absorbance (Abs) at λ = 450 nm using amicroplate reader. Three independent experiments were performed. Cell growth inhibition was calculated according to the following equation: Growth inhibition = (1 − OD of treated cells/OD of control cells) × 100% (2)
(§5) The half maximal inhibitory concentrations (IC50) were obtained from liner regression analysis of the concentration-response curves plotted for each tested compound.

[5] = system: LNCaP human prostate cancer cell line; assay: as above; format: cell-based; conditions: CCK-8, 24 h exposure, mean ± SD, three experiments
Protocol: as §4, §5

[6] = system: PC-3 human prostate cancer cell line; assay: as above; format: cell-based; conditions: CCK-8, 24 h exposure, mean ± SD, three experiments
Protocol: as §4, §5

[7] = system: RWPE-1 human prostate epithelial cell line; assay: as above; format: cell-based; conditions: for IC50: Homo sapiens, RWPE-1, CCK-8, 24 h exposure, mean ± SD, three experiments; for cytotoxic effects on human epithelial prostate normal cells RWPE-1: CCK-8
Protocol: as §4, §5

[8] = system: α1-ARs (α1A, α1B, α1D); conditions: α1-AR subtype selectivity, cited from earlier work
[9] = molecular target: T2, human α1B-adrenoceptor (ADRA1B) expressed in HEK293 cells; assay: Dual-luciferase CRE reporter HTS assay, agonist mode; format: cell-based; conditions: HEK293, 8 h, read-out: EC50 α1B (agonistic activity)
Protocol: as §2, §3

[10] = molecular target: T3, human α1D-adrenoceptor (ADRA1D) expressed in HEK293 cells; assay: as above; format: cell-based; conditions: HEK293, 8 h, read-out: EC50 α1D (agonistic activity)
Protocol: as §2, §3

[11] = system: α1-ARs (α1A, α1B, and α1D); assay: Dual-luciferase CRE reporter HTS assay, agonist mode, summary over subtypes; format: cell-based, human; conditions: for EC50: range over the three subtypes and both compounds, read-out: EC50, agonistic activities on α1-ARs (α1A, α1B, and α1D)
Protocol: as §2, §3

[12] = system: human prostate cancer cell lines (PC-3, LNCaP and DU145); assay: CCK-8 assay, summary over tested cancer cell lines; format: cell-based; conditions: range over PC-3, LNCaP, DU145 and both compounds, read-out: IC50, cytotoxic activities against tested cancer cell lines
Protocol: as §4, §5

[13] = molecular target: T1, human α1A-adrenoceptor (ADRA1A) expressed in HEK293 cells; assay: Dual-luciferase CRE reporter HTS assay, agonist mode; format: cell-based; conditions: HEK293, 8 h, read-out: EC50 α1A (agonistic activity)
Protocol: as §2, §3

| RIP Values (Mean ± S.E.M, n = 4) α1A [1] | RIP Values (Mean ± S.E.M, n = 4) α1B [2] | RIP Values (Mean ± S.E.M, n = 4) α1D [3] | EC50 [10] [µM] | SMILES | IC50 [4] [µM] | IC50 [5] [µM] | IC50 [6] [µM] | IC50 [7] [µM] | other results |
| --- | --- | --- | --- | --- | --- | --- | --- | --- | --- |
| 0.79 ± 0.09 | 0.77 ± 0.02 | 0.93 ± 0.01 | – | COc1ccccc1N1CCN(CC(O)COc2cccc3ccccc23)CC1 (stereo not drawn) [Naftopidil, naftopidil, reference compound] | 34.58 ± 0.31 | 22.4 ± 0.61 | 42.1 ± 0.79 | 52 ± 1.51 | – |
| 0.89 ± 0.05 | 0.91 ± 0.02 | 0.49 ± 0.02 | – | COc1cc2nc(N3CCN(C(=O)C4CCCO4)CC3)nc(N)c2cc1OC (stereo not drawn) [Terazosin, terazosin] | – | – | – | – | Reported Selectivity [8]: Nonselective [17]; Reported Selectivity (Table S1) ([8]; ref 2 (supplement)): Nonselective |
| – | – | – | 47.2 | Cc1ccc(S(=O)(=O)OCCc2ccc(CN3C(=O)c4ccccc4C3=O)cc2)cc1 [CHE3] | 11.1 ± 1.07 | 47 ± 1.24 | 91.3 ± 1.13 | 30.7 ± 0.66 | EC50 [9]: 42.7 µM; cytotoxic effects on human epithelial prostate normal cells RWPE-1 [7]: exhibited cytotoxic effects; EC50 [11]: 25.3 to 47.2 µM; subtype selectivity in the HTS assay ([11]; α1A, α1B, α1D): did not display significant subtype selectivity; IC50 [12]: 11.1 to 91.3 µM |
| – | – | – | 2.68 | CNC[C@H](O)c1cccc(O)c1 [Phenylephrine, phenylephrine, reference compound] | – | – | – | – | – |
| 0.83 ± 0.03 | 0.63 ± 0.07 | 0.51 ± 0.09 | – | COc1ccccc1N1CCN(CCCNc2c(C)c(=O)n(C)c(=O)n2C)CC1 [5-Methylurapidil, 5-methylurapidil] | – | – | – | – | – |
| 0.53 ± 0.08 | 0.86 ± 0.01 | 0.30 ± 0.11 | – | COc1cc2nc(N3CCN(C(=O)OCc4ccccc4)[C@H](C(=O)NC(C)(C)C)C3)nc(N)c2cc1OC [Compound L-765314] | – | – | – | – | – |

| SMILES | RIP Values (Mean ± S.E.M, n = 4) α1A [1] | RIP Values (Mean ± S.E.M, n = 4) α1B [2] | RIP Values (Mean ± S.E.M, n = 4) α1D [3] | EC50 [10] [µM] | IC50 [4] [µM] | IC50 [5] [µM] | IC50 [6] [µM] | IC50 [7] [µM] | other results |
| --- | --- | --- | --- | --- | --- | --- | --- | --- | --- |
| Cc1ccc(S(=O)(=O)OCCc2ccc(COc3ccc4c(c3)OCO4)cc2)cc1 [CHK3] | – | – | – | 34.3 | 39.1 ± 0.81 | 51.5 ± 1.08 | 55.3 ± 1.09 | 31.7 ± 0.61 | EC50 [13]: 42.5 µM; EC50 [9]: 35.2 µM; cytotoxic effects on human epithelial prostate normal cells RWPE-1 [7]: exhibited cytotoxic effects; EC50 [11]: 25.3 to 47.2 µM; IC50 [12]: 11.1 to 91.3 µM |
